Measurements: patent US8324188B2, “Combinations of ET-18-O-CH3and anti-cancer agents for the treatment of cancer” (priority 2006, dated 2012)
Where “and” joins values, the source holds several entries; their conditions need not be identical. Identical values can stand only once.

What was measured:
U118MG = test: WST-1 proliferation assay, U118MG; assay type: cell-based, human
Protocol: AP-121 was prepared as 5 mM stock solution in distilled sterile water, Temozolomide (TMZ) (Haorui Pharma-Chem, Inc., Edison, N.J.) was prepared as 100 mM in sterile filtrated DMSO; Adriamycin (ADR) (Sigma) was prepared as 1 mM in distilled sterile water; Camptothecin (CTP) (Sigma) was prepared as 10 mM solution in 0.1 N NaOH; Tarceva (Proteinkinase, Germany) was prepared as 5 mM solution in sterile DMSO. All compound stocks were kept at −20° C. 2000 cells were plated in each well of 96-well flat bottom plates, and incubated overnight at 37 °C in 5% CO2. The growth of plated cells was measured by adding […] of WST-1 reagent (Roche Applied Sciences, Germany) to 3 control wells and measuring the absorbance at 650 nm and at 450 nm, respectively, with a SpectraMax250 plate reader. […] After this incubation, VVST-1 reagent was added to the wells and OD650-OD450 values were calculated as before. six wells were assayed for each conditions and standard deviation was determined: all experiments were performed at least three times independently. […] Six different concentrations of each drug were used in combinations index measurements and compared to +/− cells, and compared to controls without compound. Each combination was repeated 6 times at 2 different time points (24 and 96 hours), each of the above experiments was repeated 3 times to obtain valid results.

LNCaP cells = test: flow cytometric analysis of annexin V-PE positive / 7-AAD negative LNCaP cells; assay type: cell-based, human
Protocol: In a further approach, 10 μM 1-O-octadecyl-2-O-methyl-glycero-3-phosphocholine (final concentration; “CHEM”) and (ionizing) radiation (5 Gray units; “RT”) were administered simultaneously to the LNCaP cells but the subsequent incubation period was extended to 24 hours. Apoptosis was measured using the Apo-ONE™ Homogenous Caspase-3/7 Assay as described above and expressed as relative fluorescence units (RFLU). The percentage of apoptotic cells was determined by flow cytometric analysis of annexin V-PE positive-stained and 7-AAD (7-Amino ActinomycinD) negative-stained cells (both purchased from BD Biosciences, San Jose, Calif., USA) according to established standard protocols. The data represent means±SEM from three independent experiments.
Next, the interaction of 1-O-octadecyl-2-O-methyl-glycero-3-phosphocholine administration (“CHEM”) and androgen deprivation (“AD”) was investigated. LNCaP cells were deprived of androgen for two days by charcoal absorption of serum according to established procedures well known in the art. CHEM was added in a final concentration of 5 μM and 10 μM, respectively.
Apoptosis was measured using the Apo-ONE™ Homogenous Caspase-3/7 Assay as described above and expressed as relative fluorescence units (RFLU). The percentage of apoptotic cells was determined via annexin V-PE/7-AAD staining as described above. The caspase-317 assay and annexin staining were performed 22 hours after CHEM treatment.

HCC827 (FAS positive) = test: WST-1 proliferation assay, HCC827; assay type: cell-based, human; settings: single agent, per experiment line
Protocol: 2000 cells were plated in each well of 96-well flat bottom plates, and incubated overnight at 37 °C in 5% CO2. The growth of plated cells was measured by adding […] of WST-1 reagent (Roche Applied Sciences, Germany) to 3 control wells and measuring the absorbance at 650 nm and at 450 nm, respectively, with a SpectraMax250 plate reader. […] After this incubation, VVST-1 reagent was added to the wells and OD650-OD450 values were calculated as before. six wells were assayed for each conditions and standard deviation was determined: all experiments were performed at least three times independently. […] DDP and GMZ were both purchased from Sigma-aldrich Corp., St. Louis, Mo., USA. The following cell lines were used: A549 (FAS negative), NCI-H460 (FAS positive), and HCC827 (FAS positive), all obtained from the ATTC, Rockville, Md., USA.

[1] = system: LNCaP androgen-sensitive human prostate adenocarcinoma cells; test: trypan blue dye exclusion, living LNCaP cells; assay type: cell-based
Protocol: FIG. 1. Depicts the in vitro effects of 1-O-octadecyl-2-O-methyl-glycero-3-phosphocholine (final concentration 10 μM), (ionizing) radiation (absorbed dose of 5 Gray units; indicated as “RT”), and a combination thereof on programmed cell death (apoptosis) and the survival rate of LNCaP androgen-sensitive human prostate adenocarcinoma cells. Apoptosis was determined using the Apo-ONE™ Homogenous Caspase-317 Assay, Promega, Inc., Madison, Wis., USA according to the manufacturers instructions. The percentage of living cancer cells was estimated by means of trypan blue dye exclusion as described (Freshney, R. I. (1994) Culture of Animal Cells: A Manual of Basic Technique. 3rd Ed. Wiley-Liss. New York. USA). The cells were exposed to radiation six hours after (FIG. 1A), concomitantly with (FIG. 1B), or six hours before administration of 1-O-octadecyl-2-O-methyl-glycero-3-phospho-choline (FIG. 1C). The caspase assay was performed 12 hours after exposure to radiation. The respective data shown represent the average of two independent experiments.
First, the in vitro effects of 1-O-octadecyl-2-O-methyl-glycero-3-phosphocholine, (ionizing) radiation, and a combination thereof on programmed cell death (apoptosis) and the survival rate of LNCaP androgen-sensitive human prostate adenocarcinoma cells were measured. The LNCaP cell line was established from a metastatic lesion of the adenocarcinoma. The cells were treated with a final concentration of 10 μM 1-O-octadecyl-2-O-methyl-glycero-3-phosphocholine and (ionizing) radiation corresponding to an absorbed dose of 5 Gray units.
Apoptosis was determined using the Apo-ONE™ Homogenous Caspase-3/7 Assay, Promega, Inc., Madison, VV1, USA according to the manufacturers instructions. The percentage of living tumor cells was estimated by means of trypan blue dye exclusion as described (Freshney, R. I. (1994) Culture of Animal Cells: A Manual of Basic Technique. 3rd Ed. Wiley-Liss. New York. USA)
The cells were exposed to radiation six hours after (FIG. 1A), concomitantly with (FIG. 1B), or six hours before administration of 1-O-octadecyl-2-O-methyl-glycero-3-phospho-choline (FIG. 1C). The caspase assay was performed 12 hours after exposure to radiation. The respective data shown represent the average of two independent experiments.

## CCCCCCCCCCCCCCCCCCOCC(COP(=O)([O-])OCC[N+](C)(C)C)OC (racemic) [AP-121, 1-O-octadecyl-2-O-methyl-glycero-3-phosphocholine]
U118MG; Homo sapiens, U-118-MG
  IC50: 3600 nM
U118MG; Homo sapiens, U-118-MG, single agent or compound mixture as labelled (arrays A2, A1), read-out: ED50 (the source's name)
  EC50: 4800 nM
U118MG; ratio to the largest value
  normalized ED50 (arrays B2, B1): 0.71
LNCaP cells; AD (androgen deprivation, two days) + 5 μM CHEM, AD alone 12.6
  % Annexin V-PE pos. cells: 15.4%
LNCaP cells; AD + 10 μM CHEM
  % Annexin V-PE pos. cells: 27.4%
LNCaP cells; AD + R1881 (two days prior) + 5 μM CHEM
  % Annexin V-PE pos. cells: 14.6%
LNCaP cells; AD + R1881 (two days prior) + 10 μM CHEM
  % Annexin V-PE pos. cells: 21.6%
LNCaP cells; CHEM 10 μM + RT 5 Gray simultaneously, 24 hours, means±SEM, p < 0.0001 vs CHEM and RT
  % Annexin V-PE pos. cells: 31.7 ± 1.0 %
LNCaP cells; CHEM 10 μM alone, 24 hours, means±SEM, three experiments, Control 3.6 ± 0.2
  % Annexin V-PE pos. cells: 18.6 ± 1.0%
LNCaP cells; Contr. + 5 μM CHEM, 22 hours after CHEM, Contr. 9.6
  % Annexin V-PE pos. cells: 13.0%
LNCaP cells; Contr. + 10 μM CHEM, 22 hours after CHEM
  % Annexin V-PE pos. cells: 17.5%
LNCaP cells; androgen-deprived LNCaP cells, 5 and 10 μM, not reversed by synthetic androgen
  apoptotic response: dose-dependent significant increase
HCC827 (FAS positive)
  IC50: 2400 nM and 850 nM and 1600 nM
[1]; 10 μM administered six hours after radiation (5 Gray), combined treatment (FIG. 1C)
  survival of the cells: about 40%
[1]; 10 μM administered six hours prior to radiation (5 Gray), combined treatment, untreated controls about 85% (FIG. 1A)
  survival of the tumor cells: about 45%
[1]; 10 μM concomitant with radiation (5 Gray), untreated controls about 86% (FIG. 1B)
  survival rate: about 55%
[1]; 10 μM, individual chemical treatment (FIG. 1B)
  survival rate: about 50%
[1]; 10 μM, individual chemical treatment (FIG. 1C)
  survival rate: about 45%
[1]; 10 μM, individual treatment without radiation (FIG. 1A)
  survival rate: about 60%
